From patent US20260250318A1, “COMPOSITIONS AND METHODS FOR CROSSING THE BLOOD BRAIN BARRIER” (VOYAGER THERAPEUTICS, INC., priority 2022, published 2026) come the findings set out here.

The subject of one test is brain, spinal cord, and DRG of the NHPs. The test can be described thus: NGS fold enrichment of synthetic library (passage 3) in NHPs, first cross-species screen. The test is classed as in vivo, cynomolgus macaques (Macaca fascicularis). Particulars: synthetic library passage 3, intravenous, RNA NGS, brain of NHPs, relative to wild-type AAV9. The procedure, abridged: (§1)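 Synthetic capsid library (passage 3) was given intravenously […] to NHPs aged 2-4 years and to BALB/c and C57Bl/6 mice (n=3 each, 6-8 weeks). After about 28 days in vivo, tissue RNA was RT-PCR amplified and NGS-sequenced; values are fold enrichment per variant relative to wild-type AAV9.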
GSGQNQQALGSQRT: the “Fold enrichment over AAV9 in the brain of NHPs” value stood at 1.695 fold.
Still for that read-out and setting: then GSGQARAHRGNQQT, with 1.017 fold; and GSDQNQRLTSSMQT, with 1.479 fold.
Same read-out and setting: then GSGQDRNIVQNQQT, with 2.112 fold; and GSGQNAQQAAAQQT, with 1.568 fold.
On the same count and under the same terms, for GSGQNQQSAREGLT the value was 3.111 fold; for GGAGSAHSGQNQQT, 1.003 fold.
Regarding GSGQNQAGHGPGQT, the “Fold enrichment over AAV9 in the brain of NHPs” value was found to be 1.670 fold.
As to GGVLVGGSGQNQQT, the “Fold enrichment over AAV9 in the brain of NHPs” value worked out at 2.778 fold.
The same measure, in the same setting: for GLAGHTVSGQNQQT the value was 3.632 fold.
As for GSRLVHVHGQNQQT, the “Fold enrichment over AAV9 in the brain of NHPs” value was determined as 2.334 fold.
Regarding GSGQIKGKMDNQQT, the “Fold enrichment over AAV9 in the brain of NHPs” value amounted to 1.654 fold.
The same measure, in the same setting: for GSGQNQSQNHLQQT the value was 1.825 fold; for GSGQPVLSISNQQT, 1.586 fold.
GNYLHQASGQNQQT: the “Fold enrichment over AAV9 in the brain of NHPs” value is listed as 1.635 fold.
On the same count and under the same terms, then GSGQNQQLSRDAST, with 1.754 fold.
With GKPAGGLSGQNQQT, the “Fold enrichment over AAV9 in the brain of NHPs” value turned out to be 1.085 fold.
Still for that read-out and setting: then GSGLPDRNLQNQQT, with 1.471 fold; and GSGQNQQTSPHNHT, with 2.761 fold; and GSGQNQQTSLSNTA, with 1.959 fold.
The same measure, in the same setting: then GSGQSHSLATNQQT, with 1.745 fold.
Same read-out and setting: for GSGHGQVLSQNQQT the value was 2.213 fold.
GSGQLSGIGGNQQT: the “Fold enrichment over AAV9 in the brain of NHPs” value is on record as 3.266 fold.

Staying with this test, now noted: synthetic library passage 3, intravenous, RNA NGS, spinal cord of NHPs, relative to wild-type AAV9.
Regarding GSGQNQQALGSQRT, the “Fold enrichment over AAV9 in the spinal cord of NHPs” value was found to be 1.934 fold.
Take GSGQARAHRGNQQT: the “Fold enrichment over AAV9 in the spinal cord of NHPs” value is listed as 0.000 fold.
On the same count and under the same terms, for GSDQNQRLTSSMQT the value was 0.164 fold; for GSGQDRNIVQNQQT, 0.229 fold; for GSGQNAQQAAAQQT, 4.239 fold.
With GSGQNQQSAREGLT, the “Fold enrichment over AAV9 in the spinal cord of NHPs” value was 5.632 fold.
Same read-out and setting: then GGAGSAHSGQNQQT, with 6.108 fold.
Regarding GSGQNQAGHGPGQT, the “Fold enrichment over AAV9 in the spinal cord of NHPs” value stood at 2.861 fold.
On the same count and under the same terms, for GGVLVGGSGQNQQT the value was 0.178 fold.
Consider GLAGHTVSGQNQQT, for which the “Fold enrichment over AAV9 in the spinal cord of NHPs” value was 0.229 fold.
Still for that read-out and setting: for GSRLVHVHGQNQQT the value was 1.174 fold.
Consider GSGQIKGKMDNQQT, for which the “Fold enrichment over AAV9 in the spinal cord of NHPs” value came to 2.601 fold.
On to GSGQNQSQNHLQQT, for which the “Fold enrichment over AAV9 in the spinal cord of NHPs” value was determined as 0.600 fold.
Consider GSGQPVLSISNQQT, for which the “Fold enrichment over AAV9 in the spinal cord of NHPs” value was 2.695 fold.
Take GNYLHQASGQNQQT: the “Fold enrichment over AAV9 in the spinal cord of NHPs” value came to 1.454 fold.
As for GSGQNQQLSRDAST, the “Fold enrichment over AAV9 in the spinal cord of NHPs” value is 3.716 fold.
Consider GKPAGGLSGQNQQT, for which the “Fold enrichment over AAV9 in the spinal cord of NHPs” value came out at 2.805 fold.
Same read-out and setting: for GSGLPDRNLQNQQT the value was 7.306 fold; for GSGQNQQTSPHNHT, 3.132 fold.
On the same count and under the same terms, for GSGQNQQTSLSNTA the value was 1.186 fold; for GSGQSHSLATNQQT, 2.711 fold; for GSGHGQVLSQNQQT, 12.133 fold.
Regarding GSGQLSGIGGNQQT, the “Fold enrichment over AAV9 in the spinal cord of NHPs” value was 0.287 fold.

The same test, now with this note: synthetic library passage 3, intravenous, RNA from brain of NHPs, NGS, relative to wild-type AAV9.
Consider GSSQNQQHDMRLRT, for which the “Fold enrichment over AAV9 in the brain of NHPs” value is 1.386 fold.
Same read-out and setting: for GSGQVHNPTQNQQT the value was 1.410 fold; for GSGQNPIRGAMQQT, 1.126 fold.
The same measure, in the same setting: for GNSSMMGSGQNQQT the value was 1.239 fold.
Turning to GSSRVPVSGQNQQT, the “Fold enrichment over AAV9 in the brain of NHPs” value was determined as 1.385 fold.
Still for that read-out and setting: for GSSVGVPSGQNQQT the value was 1.322 fold.
Consider GSGQNQQTSHFPSA, for which the “Fold enrichment over AAV9 in the brain of NHPs” value is given as 1.185 fold.
The same measure, in the same setting: then GSGSNMRLSQNQQT, with 1.363 fold; and GFIFPKVSGQNQQT, with 1.237 fold.

Staying with this test, now noted: synthetic library passage 3, intravenous, RNA from spinal cord of NHPs, NGS, relative to wild-type AAV9.
For GSSQNQQHDMRLRT, the “Fold enrichment over AAV9 in the spinal cord of NHPs” value stood at 2.645 fold.
On the same count and under the same terms, then GSGQVHNPTQNQQT, with 2.488 fold.
On to GSGQNPIRGAMQQT, for which the “Fold enrichment over AAV9 in the spinal cord of NHPs” value turned out to be 1.327 fold.
Still for that read-out and setting: for GNSSMMGSGQNQQT the value was 3.856 fold.
The same measure, in the same setting: for GSSRVPVSGQNQQT the value was 13.191 fold; for GSSVGVPSGQNQQT, 4.867 fold; for GSGQNQQTSHFPSA, 0.325 fold.
The same measure, in the same setting: then GSGSNMRLSQNQQT, with 0.588 fold; and GFIFPKVSGQNQQT, with 0.000 fold.

A further test concerns brain. The test can be described thus: NGS fold enrichment of synthetic library (passage 3) in C57Bl/6 mice, first cross-species screen. The test is classed as in vivo. The conditions noted are these: synthetic library passage 3, intravenous, RNA NGS, brain of C57Bl/6 mice, relative to wild-type AAV9. The procedure, abridged:
as §1
GSGQNQQALGSQRT: the “Fold enrichment over AAV9 in the brain of Mice (C57Bl/6)” value (“Fold enrichment over AAV9 … (C57Bl/6)” below) is 1.419 fold.
Still for that read-out and setting: for GSGQARAHRGNQQT the value was 0.254 fold; for GSDQNQRLTSSMQT, 0.875 fold; for GSGQDRNIVQNQQT, 0.454 fold.
Consider GSGQNAQQAAAQQT, for which the “Fold enrichment over AAV9 … (C57Bl/6)” value came to 0.937 fold.
For GSGQNQQSAREGLT, the “Fold enrichment over AAV9 … (C57Bl/6)” value worked out at 1.221 fold.
For GGAGSAHSGQNQQT, the “Fold enrichment over AAV9 … (C57Bl/6)” value is on record as 0.474 fold.
Same read-out and setting: for GSGQNQAGHGPGQT the value was 1.040 fold.
Regarding GGVLVGGSGQNQQT, the “Fold enrichment over AAV9 … (C57Bl/6)” value was 1.527 fold.
For the sequence GLAGHTVSGQNQQT, the “Fold enrichment over AAV9 … (C57Bl/6)” value came out at 0.972 fold.
Take GSRLVHVHGQNQQT: the “Fold enrichment over AAV9 … (C57Bl/6)” value stood at 1.277 fold.
Still for that read-out and setting: for GSGQIKGKMDNQQT the value was 1.065 fold; for GSGQNQSQNHLQQT, 1.063 fold; for GSGQPVLSISNQQT, 0.390 fold.
In the case of GNYLHQASGQNQQT, the “Fold enrichment over AAV9 … (C57Bl/6)” value turned out to be 0.816 fold.
The same measure, in the same setting: for GSGQNQQLSRDAST the value was 1.877 fold; for GKPAGGLSGQNQQT, 0.708 fold.
Regarding GSGLPDRNLQNQQT, the “Fold enrichment over AAV9 … (C57Bl/6)” value came to 1.136 fold.
As to GSGQNQQTSPHNHT, the “Fold enrichment over AAV9 … (C57Bl/6)” value turned out to be 1.524 fold.
On the same count and under the same terms, then GSGQNQQTSLSNTA, with 1.567 fold; and GSGQSHSLATNQQT, with 1.021 fold.
On to GSGHGQVLSQNQQT, for which the “Fold enrichment over AAV9 … (C57Bl/6)” value is on record as 1.880 fold.
For the sequence GSGQLSGIGGNQQT, the “Fold enrichment over AAV9 … (C57Bl/6)” value was 0.993 fold.

Still in this test, the particulars now being: synthetic library passage 3, intravenous, RNA from brain of C57Bl/6 mice, NGS, relative to wild-type AAV9.
Consider GSSQNQQHDMRLRT, for which the “Fold enrichment over AAV9 … (C57Bl/6)” value is on record as 0.669 fold.
The same measure, in the same setting: for GSGQVHNPTQNQQT the value was 1.021 fold.
Consider GSGQNPIRGAMQQT, for which the “Fold enrichment over AAV9 … (C57Bl/6)” value is listed as 1.296 fold.
On the same count and under the same terms, for GNSSMMGSGQNQQT the value was 0.656 fold; for GSSRVPVSGQNQQT, 0.870 fold; for GSSVGVPSGQNQQT, 0.336 fold.
The same measure, in the same setting: for GSGQNQQTSHFPSA the value was 0.969 fold; for GSGSNMRLSQNQQT, 0.962 fold; for GFIFPKVSGQNQQT, 1.764 fold.

In the next test the test system is brain. The test can be described thus: NGS fold enrichment of synthetic library (passage 3) in BALB/c mice, first cross-species screen. The test is classed as in vivo. Particulars: synthetic library passage 3, intravenous, RNA NGS, brain of BALB/c mice, relative to wild-type AAV9. The procedure, abridged:
as §1
For the sequence GSGQNQQALGSQRT, the “Fold enrichment over AAV9 in the brain of Mice (BALB/c)” value (shortened to “Fold enrichment over AAV9 … (BALB/c)”) turned out to be 0.562 fold.
GSGQARAHRGNQQT: the “Fold enrichment over AAV9 … (BALB/c)” value is listed as 0.386 fold.
The same measure, in the same setting: for GSDQNQRLTSSMQT the value was 0.670 fold; for GSGQDRNIVQNQQT, 0.632 fold; for GSGQNAQQAAAQQT, 0.604 fold.
Same read-out and setting: then GSGQNQQSAREGLT, with 1.104 fold.
As for GGAGSAHSGQNQQT, the “Fold enrichment over AAV9 … (BALB/c)” value is 1.092 fold.
Still for that read-out and setting: for GSGQNQAGHGPGQT the value was 0.887 fold; for GGVLVGGSGQNQQT, 0.688 fold.
As to GLAGHTVSGQNQQT, the “Fold enrichment over AAV9 … (BALB/c)” value was 0.202 fold.
Turning to GSRLVHVHGQNQQT, the “Fold enrichment over AAV9 … (BALB/c)” value was determined as 0.934 fold.
In the case of GSGQIKGKMDNQQT, the “Fold enrichment over AAV9 … (BALB/c)” value was determined as 1.012 fold.
GSGQNQSQNHLQQT: the “Fold enrichment over AAV9 … (BALB/c)” value was 0.772 fold.
Consider GSGQPVLSISNQQT, for which the “Fold enrichment over AAV9 … (BALB/c)” value is given as 0.282 fold.
Take GNYLHQASGQNQQT: the “Fold enrichment over AAV9 … (BALB/c)” value stood at 0.181 fold.
Same read-out and setting: then GSGQNQQLSRDAST, with 0.611 fold.
The same measure, in the same setting: for GKPAGGLSGQNQQT the value was 0.739 fold; for GSGLPDRNLQNQQT, 0.611 fold; for GSGQNQQTSPHNHT, 0.845 fold.
GSGQNQQTSLSNTA: the “Fold enrichment over AAV9 … (BALB/c)” value is on record as 1.182 fold.
On the same count and under the same terms, for GSGQSHSLATNQQT the value was 0.343 fold; for GSGHGQVLSQNQQT, 0.661 fold.
For the sequence GSGQLSGIGGNQQT, the “Fold enrichment over AAV9 … (BALB/c)” value was 0.626 fold.

Staying with this test, now noted: synthetic library passage 3, intravenous, RNA from brain of BALB/c mice, NGS, relative to wild-type AAV9.
Consider GSSQNQQHDMRLRT, for which the “Fold enrichment over AAV9 … (BALB/c)” value worked out at 0.552 fold.
Take GSGQVHNPTQNQQT: the “Fold enrichment over AAV9 … (BALB/c)” value is on record as 0.542 fold.
As for GSGQNPIRGAMQQT, the “Fold enrichment over AAV9 … (BALB/c)” value was found to be 0.427 fold.
On the same count and under the same terms, then GNSSMMGSGQNQQT, with 0.364 fold.
Same read-out and setting: for GSSRVPVSGQNQQT the value was 0.485 fold; for GSSVGVPSGQNQQT, 1.157 fold; for GSGQNQQTSHFPSA, 0.907 fold.
On the same count and under the same terms, then GSGSNMRLSQNQQT, with 0.730 fold.
Take GFIFPKVSGQNQQT: the “Fold enrichment over AAV9 … (BALB/c)” value was 0.692 fold.
